Test results as given in US4820694A, “Modifications of 3-O-demethylmycinose in macrocin and lactenocin” (priority 1986, dated 1989).
Converted amounts (≈) assume the structure as drawn. Like-named read-outs stand apart in the source and are kept apart here.

Experiments:
[1] = test system: Mycoplasma gallisepticum 29C; test: broth-dilution microtiter MIC test; assay type: cell-based; settings: Mycoplasmoides gallisepticum, 29C
Protocol: (§1) The MIC's in Table III were determined by standard agar-dilution assays. The MIC's in Table IV were obtained using conventional brothdilution microtiter tests.

[2] = test system: Pasteurella hemolytica 22C; test: broth-dilution microtiter MIC test; assay type: cell-based; settings: Pasteurella, 22C
Protocol: as §1

[3] = test system: Pasteurella multocida 68C; test: broth-dilution microtiter MIC test; assay type: cell-based; settings: Pasteurella multocida, 68C
Protocol: as §1

[4] = test system: Staphylococcus aureus 19C; test: broth-dilution microtiter MIC test; assay type: cell-based; settings: Staphylococcus aureus, 19C
Protocol: as §1

[5] = test system: Pasteurella multocida 17E; test: broth-dilution microtiter MIC test; assay type: cell-based; settings: Pasteurella multocida, 17E
Protocol: as §1

[6] = test system: Pasteurella multocida 22A; test: broth-dilution microtiter MIC test; assay type: cell-based; settings: Pasteurella multocida, 22A
Protocol: as §1

Mycoplasma hyorhinis 29E = test: broth-dilution microtiter MIC test; assay type: cell-based; settings: Mycoplasma, 29E
Protocol: as §1

[7] = test system: Pasteurella multocida 40G; test: broth-dilution microtiter MIC test; assay type: cell-based; settings: Pasteurella multocida, 40G
Protocol: as §1

[8] = test system: Bordetella bronchiseptica; test: broth-dilution microtiter MIC test; assay type: cell-based; settings: Bordetella bronchiseptica; broth-dilution microtiter; read-out: MIC
Protocol: as §1

[9] = test system: Mycoplasma gallisepticum 36H; test: broth-dilution microtiter MIC test; assay type: cell-based; settings: Mycoplasmoides gallisepticum, 36H
Protocol: as §1

Streptococcus sp. 19F = test: broth-dilution microtiter MIC test; assay type: cell-based; settings: Streptococcus, SP.19F
Protocol: as §1

Mycoplasma synoviae 40A = test: broth-dilution microtiter MIC test; assay type: cell-based; settings: Mycoplasmopsis synoviae, 40A
Protocol: as §1

[10] = test system: Pasteurella multocida 60A; test: broth-dilution microtiter MIC test; assay type: cell-based; settings: Pasteurella multocida, 60A
Protocol: as §1

[11] = test system: Pasteurella hemolytica 41D; test: broth-dilution microtiter MIC test; assay type: cell-based; settings: Pasteurella, 41D
Protocol: as §1

[12] = test system: Pasteurella hemolytica 23C; test: broth-dilution microtiter MIC test; assay type: cell-based; settings: Pasteurella, 23C
Protocol: as §1

[13] = test system: Mycoplasma gallisepticum 15E; test: broth-dilution microtiter MIC test; assay type: cell-based; settings: Mycoplasmoides gallisepticum, 15E
Protocol: as §1

[14] = test system: Staphylococcus aureus S13E; test: microbe, parasite or virus in culture; assay type: cell-based; settings: Staphylococcus aureus, S13E
Protocol: as §1

[15] = test system: Streptococcus pneumoniae Park I; test: microbe, parasite or virus in culture; assay type: cell-based; settings: Streptococcus pneumoniae
Protocol: as §1

Pasteurella multocida = Pasteurella multocida infection in one-day-old chicks; assay type: in vivo; settings: subcutaneously, 30 mg/kg × 2, 1 and 4 hours post-challenge
Protocol: Some of the formula 1 compounds have also shown in vivo antibacterial activity against infections induced by Gram-negative bacteria. Table VI summarizes the results of tests in which illustrative compounds were evaluated against a Pasteurella infection in one-day-old chicks. The compounds were administered by subcutaneous injection at a dosage of 30 mg/kg, 1 and 4 hours post-challenge of the chicks with Pasteurella multocida (0.1 ml of a 10^-4 dilution of a twenty-hour tryptose broth culture of an avian P. multocida given subcutaneously). In these tests, unless indicated otherwise, all non-medicated infected chicks died within 24 hours of Pasteurella challenge.
^a Administered subcutaneously; 30 mg/kg × 2

[16] = test system: Streptococcus pyogenes C203; test: protection of mice experimentally infected with S. pyogenes C203; assay type: in vivo; settings: C203, sc, Subcutaneous, mice, mg/kg × 2, doses given 1 and 4 hours postinfection, read-out: ED50
How it was run: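 Activity is given as ED50, the mg/kg dose (×2) protecting half of the mice infected with S. pyogenes C203. Compound was dosed 1 and 4 h after infection.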

[17] = test system: Staphylococcus epidermidis EP12; test: standard agar-dilution MIC assay; assay type: cell-based
Protocol: as §1

[18] = test system: Streptococcus Group D X66; test: standard agar-dilution MIC assay; assay type: cell-based; settings: read-out: MIC
Protocol: as §1

[19] = test system: Pseudomonas aeruginosa X239; test: standard agar-dilution MIC assay; assay type: cell-based; settings: Pseudomonas aeruginosa, X239; agar-dilution; read-out: MIC
Protocol: as §1

[20] = test system: Streptococcus Group D 9960; test: standard agar-dilution MIC assay; assay type: cell-based; settings: GROUPD9960, read-out: MIC
Protocol: as §1

[21] = test system: Staphylococcus epidermidis EPI1; test: standard agar-dilution MIC assay; assay type: cell-based; settings: Staphylococcus epidermidis, EPI1
Protocol: as §1

[22] = test system: Streptococcus pyogenes C203; test: standard agar-dilution MIC assay; assay type: cell-based; settings: Streptococcus pyogenes, C203
Protocol: as §1

[23] = test system: Staphylococcus aureus X400; test: standard agar-dilution MIC assay; assay type: cell-based; settings: Staphylococcus aureus, X400
Protocol: as §1

[24] = test system: Staphylococcus aureus X1.1; test: standard agar-dilution MIC assay; assay type: cell-based; settings: Staphylococcus aureus, X1.1
Protocol: as §1

[25] = test system: Klebsiella pneumoniae X68; test: standard agar-dilution MIC assay; assay type: cell-based; settings: Klebsiella pneumoniae, X68; agar-dilution; read-out: MIC
Protocol: as §1

[26] = test system: Staphylococcus aureus V41; test: standard agar-dilution MIC assay; assay type: cell-based; settings: Staphylococcus aureus, V41
Protocol: as §1

Escherichia coli EC14 = test: standard agar-dilution MIC assay; assay type: cell-based; settings: agar-dilution, read-out: MIC
Protocol: as §1

[27] = broth-dilution microtiter, read-out: MIC

Row | Structure (SMILES) | MIC [1] | MIC [3] | MIC [4] | MIC [5] | MIC [6] | MIC (Mycoplasma hyorhinis 29E) | MIC [7] | MIC [8] | MIC [9] | MIC (Streptococcus sp. 19F) | MIC (Mycoplasma synoviae 40A) | MIC [10] | MIC [13] | MIC [14] | MIC [15] | Number of Deaths/Number Treated (Pasteurella multocida) | ED50 [16] | MIC [17] | MIC [18] | MIC [19] | further results
1 | CCC1OC(=O)CC(O)C(C)C(OC2OC(C)C(O)C(N(C)C)C2OC(C)=O)C(CC=O)CC(C)C(=O)C=CC(C)=CC1COC1OC(C)C(OC(C)=O)C(OC(C)=O)C1OC (centres unmarked) [Compound 23, 2',3",4"-Tri-O-acetyl-lactenocin] | 1.56 µg/mL (≈ 1.76 µM) | 25 µg/mL (≈ 28.3 µM) | 6.25 µg/mL (≈ 7.07 µM) | 25 µg/mL (≈ 28.3 µM) | 50 µg/mL (≈ 56.6 µM) | 12.5 µg/mL (≈ 14.1 µM) | 50 µg/mL (≈ 56.6 µM) | > 50 µg/mL | 50 µg/mL (≈ 56.6 µM) | 1.56 µg/mL (≈ 1.76 µM) | 6.25 µg/mL (≈ 7.07 µM) | 50 µg/mL (≈ 56.6 µM) | 50 µg/mL (≈ 56.6 µM) | 2 µg/mL (≈ 2.26 µM) | 2 µg/mL (≈ 2.26 µM) | 10/10 | 6.8 mg/kg | 2 µg/mL (≈ 2.26 µM) | 8 µg/mL (≈ 9.05 µM) | > 128 µg/mL | MIC [2, 27]: > 50 µg/mL; MIC [11, 27]: > 50 µg/mL; MIC [12, 27]: > 50 µg/mL; MIC [20]: 4 µg/mL (≈ 4.52 µM); MIC [21]: 2 µg/mL (≈ 2.26 µM); MIC [22]: 2 µg/mL (≈ 2.26 µM); MIC [23]: 4 µg/mL (≈ 4.52 µM); MIC [24]: 2 µg/mL (≈ 2.26 µM); MIC [25]: > 128 µg/mL; MIC [26]: 2 µg/mL (≈ 2.26 µM); MIC (Escherichia coli EC14): > 128 µg/mL
2 | CCC1OC(=O)CC(O)C(C)C(OC2OC(C)C(O)C(N(C)C)C2OC(C)=O)C(CC=O)CC(C)C(=O)C=CC(C)=CC1COC1OC(C)C(OC(C)=O)C(O)C1OC (centres unmarked) [Compound 21, 2',4"-Di-O-acetyl-lactenocin] | 3.12 µg/mL (≈ 3.71 µM) | 12.5 µg/mL (≈ 14.8 µM) | 3.12 µg/mL (≈ 3.71 µM) | 12.5 µg/mL (≈ 14.8 µM) | 12.5 µg/mL (≈ 14.8 µM) | 6.25 µg/mL (≈ 7.42 µM) | 12.5 µg/mL (≈ 14.8 µM) | > 50 µg/mL | 50 µg/mL (≈ 59.4 µM) | 1.56 µg/mL (≈ 1.85 µM) | 3.12 µg/mL (≈ 3.71 µM) | 12.5 µg/mL (≈ 14.8 µM) | 50 µg/mL (≈ 59.4 µM) | 4 µg/mL (≈ 4.75 µM) | 1 µg/mL (≈ 1.19 µM) | 3/10 | 5.5 mg/kg | 4 µg/mL (≈ 4.75 µM) | 4 µg/mL (≈ 4.75 µM) | > 128 µg/mL | MIC [2]: 50 µg/mL (≈ 59.4 µM); MIC [11]: 50 µg/mL (≈ 59.4 µM); MIC [12]: 50 µg/mL (≈ 59.4 µM); MIC [20]: 4 µg/mL (≈ 4.75 µM); MIC [21]: 2 µg/mL (≈ 2.38 µM); MIC [22]: 1 µg/mL (≈ 1.19 µM); MIC [23]: 8 µg/mL (≈ 9.5 µM); MIC [24]: 2 µg/mL (≈ 2.38 µM); MIC [25]: > 128 µg/mL; MIC [26]: 4 µg/mL (≈ 4.75 µM); MIC (Escherichia coli EC14): > 128 µg/mL
